In patent US20250073281A1, “LACTOBACILLUS REUTERI HAVING IMPROVED ANTI-AGING AND HAIR HEALTH ENHANCEMENT EFFECTS, AND APPLICATION THEREOF” (priority 2021, published 2025):
Converted amounts (≈) assume the structure as drawn. Read-outs that look alike come from different tables or passages of the source.

Tested on: Lactobacillus reuteri VHProbi E18
Assay: Antibiotic tolerance experiment, MIC by broth microdilution
Assay type: cell-based
Conditions: for MIC: antibiotic against Lactobacillus reuteri VHProbi E18
Description: The minimum inhibitory concentration (MIC) value of antibiotics against Lactobacillus reuteri VHProbi E18 was determined by the broth microdilution method.

[1] = Limosilactobacillus reuteri, read-out: MIC

With `CC1(C)S[C@@H]2[C@H](NC(=O)[C@H](N)c3ccccc3)C(=O)N2[C@H]1C(=O)O` [Ampicillin] the “sensitivity of Lactobacillus reuteri VHProbi E18 to the antibiotic” value was “sensitive” and the MIC [1] was 1 µg/mL (≈ 2.86 µM).

With `[H]/N=C(/N)N[C@H]1[C@H](O)[C@@H](O)[C@H](O[C@@H]2O[C@@H](C)[C@](O)(C=O)[C@H]2O[C@@H]2O[C@@H](CO)[C@H](O)[C@@H](O)[C@@H]2NC)[C@@H](N/C(N)=N\[H])[C@@H]1O` [Streptomycin] the MIC [1] was 512 µg/mL (≈ 880 µM).

With `CN(C)[C@@H]1C(O)=C(C(N)=O)C(=O)[C@@]2(O)C(O)=C3C(=O)c4c(O)cccc4[C@@](C)(O)[C@H]3C[C@@H]12` [Tetracycline] the MIC [1] was 16 µg/mL (≈ 36 µM).

For `CC[C@H]1OC(=O)[C@H](C)[C@@H](O[C@H]2C[C@@](C)(OC)[C@@H](O)[C@H](C)O2)[C@H](C)[C@@H](O[C@@H]2O[C@H](C)C[C@H](N(C)C)[C@H]2O)[C@](C)(O)C[C@@H](C)C(=O)[C@H](C)[C@@H](O)[C@]1(C)O` [Erythromycin], the “sensitivity of Lactobacillus reuteri VHProbi E18 to the antibiotic” value was “sensitive” and the MIC [1] was 1 µg/mL (≈ 1.36 µM).

Work on `CCC[C@@H]1C[C@@H](C(=O)N[C@@H]([C@H]2O[C@H](SC)[C@H](O)[C@@H](O)[C@H]2O)[C@H](C)Cl)N(C)C1` [Clindamycin] yielded an MIC [1] of 256 µg/mL (≈ 602 µM).

With Gentamicin the MIC was 256 µg/mL.
